molecular target: Induced myeloid leukemia cell differentiation protein Mcl-1 (Homo sapiens) (UniProt Q07820); experiment: Mcl-1/Noxa binding inhibitor potency, dose response, biochemical, TR-FRET (AID 1417); conditions: Mcl-1/Noxa peptide interaction, cell-free TR-FRET (terbium/rhodamine), 2 h; measured here: absolute IC50
Sequence (Q07820 whole entry, looked up): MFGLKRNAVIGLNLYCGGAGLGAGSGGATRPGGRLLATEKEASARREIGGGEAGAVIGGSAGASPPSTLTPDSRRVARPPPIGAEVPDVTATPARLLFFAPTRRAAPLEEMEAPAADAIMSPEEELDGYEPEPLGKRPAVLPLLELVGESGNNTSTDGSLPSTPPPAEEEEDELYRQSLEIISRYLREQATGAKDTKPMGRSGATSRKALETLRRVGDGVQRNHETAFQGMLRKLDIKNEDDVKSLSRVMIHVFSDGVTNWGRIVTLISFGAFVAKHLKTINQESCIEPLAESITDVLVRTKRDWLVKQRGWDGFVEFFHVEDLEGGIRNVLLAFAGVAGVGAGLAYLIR

| Compound | IC50 |
| --- | --- |
| C=CCOc1c(OC)cc(/C=N/Nc2cccc(C(=O)O)c2)c(Br)c1Br | > 54000 nM |
| COc1ccc(-c2csc(Nc3ccccc3)n2)cc1 | > 54000 nM |
| Cc1cc(C)c2c(c1)C1C=CCC1C(c1ccc(S(=O)(=O)N3CCOCC3)cc1)N2 (stereo unspecified) | 2050 nM |
| Cc1ccc(/C=C/C(=O)Nc2ccc([N+](=O)[O-])c(NC(=O)/C=C/c3ccc(C)o3)c2)o1 | < 400 nM |
| Clc1cccc(N/N=C/c2ccc(N3CCOCC3)s2)c1 | < 400 nM |
| COc1ccc(CC(=O)n2[nH]c(=O)ccc2=O)cc1OC | < 400 nM |
| Cc1cccc(OCCCC(=O)Nc2ccc(N(C)C)cc2)c1 | 1800 nM |
| O=C(O)c1ccc(Nc2nc(-c3cc4ccccc4oc3=O)cs2)cc1O | 5360 nM |
| COc1ccc(C(=O)N2c3ccccc3CC2C)cc1OC (stereo unspecified) | > 54000 nM |
| O=C(O)C1Nc2c(O)cc(Cl)c([N+](=O)[O-])c2C2C=CCC12 (stereo unspecified) | < 400 nM |
| Cc1ccc(OCCCC(=O)Nc2ccccc2C(F)(F)F)cc1 | 43900 nM |
| Cc1ccc2[nH]c(O)c(N=Nc3nc4ccccc4s3)c2c1 | 2480 nM |
| O=C1NC(=S)S/C1=C\C=C\c1ccc([N+](=O)[O-])o1 | < 400 nM |
| Cc1ccc(NS(=O)(=O)c2cc([N+](=O)[O-])ccc2NNC(=S)Nc2cccc(Cl)c2)c(C)c1 | > 54000 nM |
| CCOC(=O)c1[nH]c2c(c1C)C(=O)CC(c1ccco1)C2 (stereo unspecified) | 5640 nM |
| Oc1c(Cl)cc(Cl)cc1Sc1cc(Cl)cc(Cl)c1O | 1640 nM |
| O=C(N/N=C/c1ccco1)c1cccc(N2Cc3ccccc3C2)c1 | 3500 nM |
| O=C(O)c1ccc(-n2cccc2/C=N\NC(=O)c2cc3cc(Br)ccc3o2)cc1 | 915 nM |
| Cc1nnc(Sc2cc(NCCO)c([N+](=O)[O-])c3nonc23)s1 | < 400 nM |
| CSc1nc(SCCO)c2sc3nc(-c4ccco4)c4c(c3c2n1)CC(C)(C)OC4 | < 400 nM |
| O=C1CSC(=S)N1/N=C/c1ccc(O)c([N+](=O)[O-])c1 | 1390 nM |
| COC1=C/C(=C/c2c(N)n3nc(-c4ccc(C)cc4)sc3nc2=O)C=CC1=O | 2820 nM |

| Compound | IC50 |
| --- | --- |
| CN(C)c1ccc(/C=C/c2ccc3c4ccccc4ccc3[n+]2-c2ccccc2)cc1 | > 54000 nM |
| CC(=O)Oc1ccc(NC(=O)CSc2ccccc2)cc1 | > 54000 nM |
| O=C(O)c1cccc2c1NC(C(=O)O)C1CC(Sc3ccccc3[N+](=O)[O-])C(Cl)C21 (stereo unspecified) | 881 nM |
| Cc1ccc(C2=NC(=O)/C(=C/c3cc(O)c(O)c(Br)c3)S2)cc1 | < 400 nM |
| COc1cc(/C=C(\C#N)c2nc3ccc(C)cc3[nH]2)cc([N+](=O)[O-])c1O | 3440 nM |
| Fc1cc(F)c2nc(Nc3nc4cc5c(cc4s3)OCO5)sc2c1 | < 400 nM |
| CCOc1ccc(C2C3=C(Nc4nc(N)[nH]c(=O)c42)c2ccccc2C3=O)cc1 (stereo unspecified) | 23300 nM |
| O=C1NC(=S)N(c2ccc(F)cc2)C(=O)/C1=C\c1ccoc1 | < 400 nM |
| CSc1nc(NCCOCCO)c2sc3nc(-c4ccco4)c4c(c3c2n1)CCC4 | < 400 nM |
| COc1ccc(C(c2c(O)ccc3ccccc23)N2CCOCC2)c(OC)c1 (stereo unspecified) | < 400 nM |
| COc1cccc2c(=S)c(CCC(C)=O)c(C)[nH]c12 | 718 nM |
| O=C(/C=C/c1cccnc1)c1ccc(O)cc1 | > 54000 nM |
| O=C(/C=C/c1ccco1)Nc1ccc2nn(-c3ccccc3)nc2c1 | 3240 nM |
| CCc1ccc(NC(=O)N(CCN2CCOCC2)Cc2ccc3c(c2)CCCN3CC)cc1 | > 54000 nM |
| COc1ccc(Cc2nnc(NC(=O)Cc3cccs3)s2)cc1OC | 1050 nM |
| COc1cccc(NS(=O)(=O)c2ccc3c(c2)C2C=CCC2C(c2ccc(C(=O)O)cc2)N3)c1 (stereo unspecified) | 1020 nM |
| COc1cc(/C=C2\SC(=O)N(Cc3ccc(Cl)cc3)C2=O)cc([N+](=O)[O-])c1O | 7110 nM |
| O=C1OC(c2cccs2)=N/C1=C/c1ccc(-c2cccc(C(=O)O)c2)o1 | > 54000 nM |
| COc1ccc(C2=CC(=O)C=CC2=O)cc1 | < 400 nM |
| CC1C(=O)NN=C1C(=O)N/N=C\c1ccc(O)cc1O (stereo unspecified) | < 400 nM |
| NC(=O)c1nn(CC(=O)Nc2ccc3c(c2)OCO3)cc1[N+](=O)[O-] | > 54000 nM |
| O=C1NC(=O)N(c2ccccc2)C(=O)/C1=C\c1ccc2c3c(cccc13)CC2 | 8210 nM |

| Compound | IC50 |
| --- | --- |
| Cc1ccc(-n2cccc2/C=C2/C(=N)N3C(=NC2=O)SN=C3S(C)(=O)=O)cc1Cl | 1100 nM |
| O=C1N=c2ccccc2=C1c1c(O)n(-c2cccc(F)c2)[nH]c1=O | < 400 nM |
| COc1ccc(C(=O)O)cc1NC(=S)NC(=O)c1ccc(-c2ccc(Cl)cc2)o1 | > 54000 nM |
| CCOc1cc(/C=C(\C#N)c2[nH]nc(N)c2C#N)ccc1O | 4600 nM |
| COC(=O)C1=Nc2ccccc2/C1=C\c1c(O)n(-c2ccc(Br)cc2)c(=O)[nH]c1=O | 7490 nM |
| Cc1ccc(-n2c(O)c(/C=N/Nc3ccc(S(=O)(=O)N4CCOCC4)cc3[N+](=O)[O-])c3ccccc3c2=O)c(C)c1 | > 54000 nM |
| CN(c1ccccc1)c1ccc(/C=C(\CCC(=O)O)c2nc3ccccc3s2)cc1[N+](=O)[O-] | 1060 nM |
| Cc1cc(SCC(=O)N/N=C/c2ccc(O)c(O)c2O)c(C)cc1Br | < 400 nM |
| CC(=O)N(C1=C(Cl)C(=O)c2ccccc2C1=O)C1CCCCC1 | < 400 nM |
| COc1ccc(NC(=O)c2cc(-c3ccco3)nc3ccccc23)cc1S(=O)(=O)N1CCOCC1 | < 400 nM |
| Cc1n[nH]c(=S)n(NC(=O)/C=C/C(=O)Nn2c(=S)[nH]nc(C)c2=O)c1=O | < 400 nM |
| O=C(COC(=O)Cn1cnc2ccccc21)Nc1ccc2c(c1)C(=O)c1ccccc1C2=O | 2590 nM |
| CN=c1scc(C)n1/N=C/c1ccc(O)c(O)c1O | 1760 nM |
| COc1ccc(/C=C2/SC(=S)N(c3ccc(S(=O)(=O)Nc4nccs4)cc3)C2=O)cc1 | 999 nM |
| Cc1cc(C(=O)COC(=O)c2cc(O)c3ccccc3c2O)c(C)n1CC1CCCO1 (stereo unspecified) | < 400 nM |
| Oc1cc2c(cc1O)C1c3ccc(O)c(O)c3OCC1(O)C2 (stereo unspecified) | < 400 nM |
| C/C(=N/NC(=O)c1cc2ccccc2cc1O)C1C(=O)c2ccccc2C1=O | 919 nM |
| COc1cccc2c(C)c(C(=O)O)[nH]c12 | 2000 nM |
| COc1ccc2nc(S(=O)Cc3ncc(C)c(OC)c3C)[nH]c2c1 (stereo unspecified) | < 400 nM |
| O=C(O[C@@H]1OC2COC(=O)c3cc(O)c(O)c(O)c3-c3c(cc(O)c(O)c3O)C(=O)O[C@@H]([C@H]1O)[C@@H]2O)c1cc(O)c(O)c(O)c1 | < 400 nM |
| O=C(N/N=C/c1ccc(O)c(O)c1)c1ccc(CSc2cccc3cccnc23)cc1 | 3090 nM |
| Cc1ccc(C(=O)Nc2ccc(N3CCCC3)cc2)c(C)c1 | > 54000 nM |

| Compound | IC50 |
| --- | --- |
| C=CCOC(=O)c1cc(-c2ccc(/C=C3\C(=O)NC(=O)C(C#N)=C3C)o2)ccc1Cl | < 400 nM |
| O=C1/C(=C/c2ccco2)SC(=S)N1c1cccnc1 | > 54000 nM |
| O=C1CCCCC1C(=O)c1ccccc1 (stereo unspecified) | > 54000 nM |
| COc1cc(/C=C/c2nc3ccccc3c(=O)n2-c2cccc(O)c2)ccc1O | 10500 nM |
| CCNc1ccc(Br)cc(C(=O)/C=C/c2ccc(Cl)cc2Cl)c1=O | 4190 nM |
| O=[N+]([O-])c1cc(Br)c(O)c(/C=N/Nc2nc3ccccc3s2)c1 | < 400 nM |
| COC(=O)C1=C(C(=O)OC)C(c2cc(Cl)ccc2O)c2sc(=O)[nH]c2S1 (stereo unspecified) | 3350 nM |
| CN1CCc2cccc3c2[C@@H]1Cc1ccc(O)c(O)c1-3 | 827 nM |
| CN(C)c1ccc(NC(=O)c2cn(-c3ccccc3)nc2-c2cccs2)cc1 | > 54000 nM |
| COc1ccc(NC(=O)CN2C(=O)/C(=C3\SC(=S)N(C4CCS(=O)(=O)C4)C3=O)c3ccccc32)cc1 (stereo unspecified) | 2540 nM |
| Cc1ccc(NC(=O)CN2C(=O)/C(=C3\SC(=S)N(C4CCS(=O)(=O)C4)C3=O)c3ccccc32)cc1 (stereo unspecified) | < 400 nM |
| O=C(Nc1ccc(N2CCCC2)cc1)c1ccc(Br)o1 | 1060 nM |
| N=C1S/C(=C\c2ccc(-c3cccc(Cl)c3)o2)C(=O)N1c1nccs1 | 861 nM |
| COc1ccc(NC(=O)Cc2c(SC)c3ccccc3n2Cc2ccccc2)cc1 | > 54000 nM |
| O=c1c2c3c(sc2[nH]c(=S)n1Cc1ccco1)CCC3 | 1420 nM |
| O=C1CCCC2=C1C(c1ccc(O)c(O)c1)c1c(ccc3ncccc13)N2 (stereo unspecified) | < 400 nM |
| CC(C)OC(=O)Cn1cnc2ccc(Br)cc2c1=O | > 54000 nM |
| CC(/C=C1\SC(=S)N(NS(=O)(=O)c2ccc(C)cc2)C1=O)=C\c1ccccc1 | 5660 nM |
| O=C(NCCCCc1ccccc1)C1CC(c2ccccc2[N+](=O)[O-])=NO1 (stereo unspecified) | > 54000 nM |
| Fc1cccc(NC(=S)NNc2c3ccccc3nc3ccccc23)c1 | 3310 nM |
| Cc1cccc(NC(=O)c2cccs2)n1 | > 54000 nM |
| O=C(O)c1ccccc1NS(=O)(=O)c1ccc(NNC(=S)Nc2ccc(OC(F)F)cc2)c([N+](=O)[O-])c1 | < 400 nM |

| Compound | IC50 |
| --- | --- |
| O=C(O)c1cc(N2N=C(C(F)(F)F)/C(=C/C=C/c3ccco3)C2=O)ccc1Cl | < 400 nM |
| O=C(CNC(=O)C(c1ccccc1)c1ccccc1)N/N=C/c1cccnc1 | > 54000 nM |
| O=C(CCN1CCN(c2ccccc2)CC1)N/N=C/c1ccc(O)c(O)c1O | < 400 nM |
| COc1ccc(OCC(=O)Nc2nnc(-c3ccco3)s2)cc1 | 3810 nM |
| Cn1c(=O)c(C(=O)COC(=O)c2cc(-c3ccco3)nc3ccccc23)c(N)n(Cc2ccccc2)c1=O | < 400 nM |
| C=CCN=c1scc(-c2ccco2)n1/N=C/c1ccc(O)c(O)c1O | > 54000 nM |
| CN(C)c1ccc(Nc2nc(N)c([N+](=O)[O-])c(N3CCOCC3)n2)cc1 | < 400 nM |
| COc1ccc(/C=C2\C(=O)N(c3c(Cl)cc(Cl)cc3Cl)N=C2NC(=O)c2cccc([N+](=O)[O-])c2)cc1 | 2960 nM |
| COc1ccc(C(=O)c2sc3nc(-c4ccccc4)ccc3c2N)cc1OC | > 54000 nM |
| Cc1c(O)cc2c(c1O)C(=O)CC(c1ccc(O)cc1)O2 (stereo unspecified) | 2840 nM |
| N#Cc1c2nc3ccccc3nc2n2cc(NC(=O)c3ccc(F)cc3)ccc12 | < 400 nM |
| COc1ccc(-c2csc(NC(=O)CSc3nc(C)nc4sc(C(=O)O)c(C)c34)n2)cc1 | 8230 nM |
| O=C(O)c1ccc(N2C(=O)/C(=C/c3ccc(-c4ccc([N+](=O)[O-])cc4)o3)C=C2c2ccccc2)cc1 | < 400 nM |
| c1ccc(-c2ccc(-c3n(-c4ccccn4)c4ccccc4[n+]3-c3ccccn3)cc2)cc1 | 34600 nM |
| Cc1ccc(-c2ccc(/C=C3/NC(=O)NC3=O)o2)cc1[N+](=O)[O-] | 6440 nM |
| CCN(CC)c1ccc(NC(=O)/C=C\c2ccccc2Cl)cc1 | < 400 nM |
| C=CCn1c(C)cc(C(=O)Cn2ncc(Cl)c(Cl)c2=O)c1C | 3070 nM |
| Cc1ccc(NC(=O)CN2C(=O)S/C(=C/c3ccc(-c4cc(C(=O)O)ccc4C)o3)C2=O)cc1C | 2850 nM |

Reference: PubChem BioAssay AID1417 (Emory University Molecular Libraries Screening Center, 2008)
